The source of these data is ChEMBL document CHEMBL1138197, “Dopamine/serotonin receptor ligands. 12(1): SAR studies on hexahydro-dibenz[d,g]azecines lead to 4-chloro-7-methyl-5,6,7,8,9,14-hexahydrodibenz[d,g]azecin-3-ol, the first picomolar D5-selective dopamine-receptor antagonist” (J Med Chem, 2006).

Experiment [1] has as its target T1, D(2) dopamine receptor (Homo sapiens, UniProt P14416). Briefly: Inhibition of D2L dopamine receptor in HEK 293 cells by intracellular calcium assay. The class given is functional, cell-based, HEK293. For orientation: Calcium flux is commonly read through the fluorescence of an indicator in the cells.
Experiment [2] deals with T1, D(2) dopamine receptor. In words: Displacement of [3H]spiperone from D2L dopamine receptor.
Experiment [3] addresses T2, D(1A) dopamine receptor (Homo sapiens, UniProt P21728). In words: Displacement of [3H]SCH 23390 from D1 dopamine receptor. In general terms: In a radioligand displacement assay an active substance lowers the binding of a labelled ligand.
Experiment [4] addresses T3, D(1B) dopamine receptor (Homo sapiens, UniProt P21918). Briefly: Binding affinity to D5 dopamine receptor by radioligand binding assay.
For experiment [5], the target named is T3, D(1B) dopamine receptor. Briefly: Inhibition of D5 dopamine receptor in HEK 293 cells by intracellular calcium assay. It is filed as functional, cell-based, HEK293.
The target of experiment [6] is D(3) dopamine receptor (Homo sapiens, UniProt P35462). Briefly: Binding affinity to D3 dopamine receptor by radioligand binding assay.
Experiment [7] has as its target T4, D(4) dopamine receptor (Homo sapiens, UniProt P21917).
T4 sequence (P21917 whole entry): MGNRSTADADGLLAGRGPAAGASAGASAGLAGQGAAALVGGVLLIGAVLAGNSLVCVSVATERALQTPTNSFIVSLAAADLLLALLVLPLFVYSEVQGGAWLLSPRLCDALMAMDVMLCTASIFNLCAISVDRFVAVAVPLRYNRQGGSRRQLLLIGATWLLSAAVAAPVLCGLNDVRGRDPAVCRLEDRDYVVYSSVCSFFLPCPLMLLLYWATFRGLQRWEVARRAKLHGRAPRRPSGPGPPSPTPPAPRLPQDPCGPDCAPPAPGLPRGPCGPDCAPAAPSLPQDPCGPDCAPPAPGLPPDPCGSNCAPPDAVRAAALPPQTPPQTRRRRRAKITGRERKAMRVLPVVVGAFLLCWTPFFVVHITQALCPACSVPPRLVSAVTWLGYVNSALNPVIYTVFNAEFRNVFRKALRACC
Briefly: Binding affinity to D4 dopamine receptor by radioligand binding assay.

The target in experiment [8] is T2, D(1A) dopamine receptor. In words: Inhibition of D1 dopamine receptor in HEK 293 cells by intracellular calcium assay. The class given is functional, cell-based, HEK293.

Sequence of D(3) dopamine receptor (P35462 whole entry): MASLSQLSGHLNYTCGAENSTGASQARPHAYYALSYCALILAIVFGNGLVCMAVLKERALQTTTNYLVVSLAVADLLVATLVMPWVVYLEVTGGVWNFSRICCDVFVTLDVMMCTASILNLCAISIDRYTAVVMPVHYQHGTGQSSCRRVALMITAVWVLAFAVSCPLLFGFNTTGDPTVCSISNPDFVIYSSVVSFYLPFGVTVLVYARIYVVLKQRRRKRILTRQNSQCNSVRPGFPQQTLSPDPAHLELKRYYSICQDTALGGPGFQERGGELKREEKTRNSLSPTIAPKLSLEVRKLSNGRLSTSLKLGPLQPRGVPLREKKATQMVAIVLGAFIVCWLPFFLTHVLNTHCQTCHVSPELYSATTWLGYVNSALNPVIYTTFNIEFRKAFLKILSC
T3 sequence (P21918 whole entry): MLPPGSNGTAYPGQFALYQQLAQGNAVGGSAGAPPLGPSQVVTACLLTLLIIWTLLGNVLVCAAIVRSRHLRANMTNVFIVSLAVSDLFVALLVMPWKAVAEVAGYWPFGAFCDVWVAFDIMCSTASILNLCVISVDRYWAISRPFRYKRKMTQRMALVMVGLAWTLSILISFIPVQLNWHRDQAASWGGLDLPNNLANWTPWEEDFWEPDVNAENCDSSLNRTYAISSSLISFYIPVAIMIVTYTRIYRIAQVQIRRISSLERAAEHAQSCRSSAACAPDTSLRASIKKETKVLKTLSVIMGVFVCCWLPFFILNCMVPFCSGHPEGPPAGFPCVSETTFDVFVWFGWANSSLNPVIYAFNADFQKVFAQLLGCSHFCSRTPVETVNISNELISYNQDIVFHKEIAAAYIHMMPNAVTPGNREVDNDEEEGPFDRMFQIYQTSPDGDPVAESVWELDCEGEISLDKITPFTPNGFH
T2 sequence (P21728 whole entry): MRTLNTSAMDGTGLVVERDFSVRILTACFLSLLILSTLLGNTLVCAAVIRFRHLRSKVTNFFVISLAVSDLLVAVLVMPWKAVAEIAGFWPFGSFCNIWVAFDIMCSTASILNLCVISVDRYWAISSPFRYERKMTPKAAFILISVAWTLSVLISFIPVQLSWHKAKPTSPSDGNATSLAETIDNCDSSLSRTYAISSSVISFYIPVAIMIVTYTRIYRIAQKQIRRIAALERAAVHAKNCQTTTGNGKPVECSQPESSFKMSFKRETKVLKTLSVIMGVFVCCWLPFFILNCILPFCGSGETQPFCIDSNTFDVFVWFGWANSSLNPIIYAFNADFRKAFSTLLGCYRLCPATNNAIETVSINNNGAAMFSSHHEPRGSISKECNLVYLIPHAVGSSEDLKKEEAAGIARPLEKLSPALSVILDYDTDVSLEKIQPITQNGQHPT
T1 sequence (P14416 whole entry): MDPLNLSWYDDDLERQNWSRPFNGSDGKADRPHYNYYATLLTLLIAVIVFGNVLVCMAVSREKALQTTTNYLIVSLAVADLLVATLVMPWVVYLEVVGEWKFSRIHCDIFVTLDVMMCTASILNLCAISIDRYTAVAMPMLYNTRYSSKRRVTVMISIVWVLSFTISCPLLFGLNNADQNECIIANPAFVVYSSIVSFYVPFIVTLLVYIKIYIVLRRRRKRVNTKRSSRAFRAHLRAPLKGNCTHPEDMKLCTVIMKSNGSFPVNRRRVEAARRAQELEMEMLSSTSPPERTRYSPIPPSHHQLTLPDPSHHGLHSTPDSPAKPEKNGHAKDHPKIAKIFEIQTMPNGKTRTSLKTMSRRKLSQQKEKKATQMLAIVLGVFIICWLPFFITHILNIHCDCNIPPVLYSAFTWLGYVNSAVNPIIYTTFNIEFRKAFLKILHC

For the compound `CN1CCc2ccccc2Cc2[nH]c3ccccc3c2CC1`, the Ki (usually the dissociation constant of the complex between target and ligand, obtained from inhibition or displacement) in experiment [1] came to 19 nM; in experiment [2] it was 44.7 nM; in experiment [3], 1.9 nM; in experiment [4] it was 7.5 nM; in experiment [5] it was 12.7 nM.

For `CN1CCc2ccccc2Cc2ccc(O)c(Cl)c2CC1`, the Ki in experiment [1] was found to be 6.1 nM; in experiment [6], 24.6 nM; in experiment [7], 5.2 nM; in experiment [8], 0.46 nM; in experiment [2], 4 nM; in experiment [3] it was 0.83 nM. In addition, the Ki in experiment [4] is 0.057 nM; in experiment [5] it was 0.053 nM.

As for `CN1CCc2ccccc2Cc2cc(O)c(Cl)cc2CC1`, the Ki turned out to be 4.8 nM in experiment [1]; 27.7 nM in experiment [6]; 10.8 nM in experiment [8]; 2 nM in experiment [2]; 3.1 nM in experiment [3]; 4.9 nM in experiment [4]. In addition, the Ki in experiment [5] turned out to be 3.1 nM.

In the case of `COc1ccc2c(c1)CCN(C)CCc1ccccc1C2`, the Ki in experiment [1] came to 0.55 nM; in experiment [6], 75.7 nM; in experiment [8], 24.1 nM; in experiment [2], 13 nM; in experiment [3] it was 28.5 nM; in experiment [5], 7.2 nM.

In the case of `COc1ccc2c(c1)CCN(C)CCc1cc(OC)ccc1C2`, the Ki in experiment [1] worked out at 0.62 nM; in experiment [6] it was 102 nM; in experiment [8], 26.9 nM; in experiment [2] it was 6.5 nM; in experiment [3] it was 9.4 nM; in experiment [4], 12.6 nM. For the same compound, the Ki in experiment [5] was 11.5 nM.

For the compound `COc1c(Cl)cc2c(c1Cl)Cc1ccccc1CCN(C)CC2`, the Ki was determined as 2.5 nM in experiment [1]; 415 nM in experiment [6]; 34 nM in experiment [8]; 210 nM in experiment [2]; 25.3 nM in experiment [3]; 59 nM in experiment [5].

Consider `CN1CCc2ccccc2Cc2cc(O)ccc2CC1`, for which the Ki in experiment [1] is 19 nM; in experiment [6], 296 nM; in experiment [8] it was 2.6 nM; in experiment [2] it was 36.9 nM; in experiment [3], 8.9 nM; in experiment [4], 42.3 nM. Further, the Ki in experiment [5] worked out at 37.5 nM.

For `COc1ccc2c(c1)Cc1ccccc1CCN(C)CC2`, the inhibitory constant (Ki) amounted to 21.1 nM in experiment [1]; 151 nM in experiment [6]; 567 nM in experiment [8]; 62 nM in experiment [2]; 82 nM in experiment [3]; 1050 nM in experiment [5].

Turning to `COc1cccc2c1Cc1ccccc1CCN(C)CC2`, the Ki in experiment [1] was 39.9 nM; in experiment [6], 1830 nM; in experiment [8] it was 37.6 nM; in experiment [2] it was 164 nM; in experiment [3], 7.6 nM; in experiment [5] it was 54.6 nM.

Consider `CN1CCc2ccccc2Cc2cc(Cl)c(O)c(Cl)c2CC1`, for which the Ki in experiment [1] turned out to be 37.5 nM; in experiment [8] it was 3.8 nM; in experiment [2] it was 88 nM; in experiment [3], 3.2 nM; in experiment [5], 1.2 nM.

Take `CN1CCc2cc(O)ccc2Cc2ccc(O)cc2CC1`: the inhibitory constant (Ki) in experiment [1] was 19 nM; in experiment [6], 342 nM; in experiment [8] it was 3.3 nM; in experiment [2] it was 58.7 nM; in experiment [3], 2 nM; in experiment [4] it was 1.68 nM. Also, the inhibition constant (Ki) in experiment [5] was 0.54 nM.

With `CN1CCc2ccccc2Cc2c(ccc(O)c2Cl)CC1`, the Ki was determined as 0.13 nM in experiment [1]; 1.88 nM in experiment [6]; 6.8 nM in experiment [8]; 0.99 nM in experiment [2]; 0.46 nM in experiment [3]; 0.98 nM in experiment [4]. For the same compound, in experiment [5], the Ki stood at 1.6 nM.

`CN1CCc2ccccc2Cc2cc(N)c(O)cc2CC1`: the Ki worked out at 26.1 nM in experiment [1]; 20.9 nM in experiment [8]; 37.3 nM in experiment [2]; 9.3 nM in experiment [3]; 226 nM in experiment [4]; 39.5 nM in experiment [5].

On to `CN1CCc2ccccc2Cc2c(O)cccc2CC1`, for which the Ki stood at 7.9 nM in experiment [1]; 215 nM in experiment [6]; 64.1 nM in experiment [8]; 84 nM in experiment [2]; 8.7 nM in experiment [3]; 10.4 nM in experiment [5].
